Results from ChEMBL document CHEMBL1131658, “Potent cyclic urea HIV protease inhibitors with 3-aminoindazole P2/P2' groups” (Bioorg Med Chem Lett, 1998).

How the values were obtained:
MT2 = test: Compound was evaluated for accumulation of viral RNA transcripts three days after infection of MT-2 cells with HIV-1 RF; format: functional; settings: Homo sapiens, MT2, 72 h
[1] = Ratio of -logKi with respect to inhibition was evaluated; format: functional
[2] = target: Human immunodeficiency virus type 1 protease (Human immunodeficiency virus 1, UniProt Q72874); test: The compound was evaluated for inhibition of HIV protease
[3] = Half life period was evaluated.; format: ADME
[4] = Maximum concentration of compound in dog was evaluated.; format: ADME, organism-based, Canis lupus familiaris; settings: in vivo
[5] = Maximum concentration of compound in rat was evaluated.; format: ADME, organism-based; settings: in vivo
[6] = Percentage Bioavailability was evaluated.; format: ADME, organism-based; settings: in vivo; read-out: Bioavailabiility

half-life [3] [h] | Cmax [4] [µM] | Cmax [5] [µM] | bioavailability [6] [%] | SMILES | IC90 (MT2) [nM] | Ratio [1] | Ki [2] [nM]
– | – | – | – | Nc1[nH]nc2ccc(CN3C(=O)N(Cc4ccc5n[nH]c(N)c5c4)[C@H](Cc4ccccc4)[C@H](O)[C@@H](O)[C@H]3Cc3ccccc3)cc12 | 2760 | 5.4 | –
– | – | – | – | CNc1[nH]nc2ccc(CN3C(=O)N(Cc4ccc5n[nH]c(NC)c5c4)[C@H](Cc4ccccc4)[C@H](O)[C@@H](O)[C@H]3Cc3ccccc3)cc12 | 279 | 4.2 | 0.018
2 | 1 | 0.03 | 13 | O=C1N(Cc2ccc3[nH]ncc3c2)[C@H](Cc2ccccc2)[C@H](O)[C@@H](O)[C@@H](Cc2ccccc2)N1Cc1ccc2[nH]ncc2c1 | 8 | – | –
– | – | – | – | CCCNc1[nH]nc2ccc(CN3C(=O)N(Cc4ccc5n[nH]c(NCCC)c5c4)[C@H](Cc4ccccc4)[C@H](O)[C@@H](O)[C@H]3Cc3ccccc3)cc12 | 40 | 2.2 | 0.23
– | – | – | – | CCNc1[nH]nc2ccc(CN3C(=O)N(Cc4ccc5n[nH]c(NCC)c5c4)[C@H](Cc4ccccc4)[C@H](O)[C@@H](O)[C@H]3Cc3ccccc3)cc12 | 65 | 3.2 | 0.041
– | – | – | – | O=C1N(Cc2ccc3[nH]nc(N4CCCC4)c3c2)[C@H](Cc2ccccc2)[C@H](O)[C@@H](O)[C@@H](Cc2ccccc2)N1Cc1ccc2[nH]nc(N3CCCC3)c2c1 | 120 | 2 | 1.3
– | – | – | – | O=C1N(Cc2ccc3[nH]c(O)nc3c2)[C@H](Cc2ccccc2)[C@H](O)[C@@H](O)[C@@H](Cc2ccccc2)N1Cc1ccc2[nH]c(O)nc2c1 | > 65000 | – | < 0.01
– | – | – | – | CC(C)Nc1[nH]nc2ccc(CN3C(=O)N(Cc4ccc5n[nH]c(NC(C)C)c5c4)[C@H](Cc4ccccc4)[C@H](O)[C@@H](O)[C@H]3Cc3ccccc3)cc12 | 24 | 2.4 | 0.09
– | – | – | – | Nc1n[nH]c2ccc(CN3C(=O)N(Cc4ccc5[nH]nc(N)c5c4)[C@H](Cc4ccccc4)[C@H](O)[C@@H](O)[C@H]3Cc3ccccc3)cc12 | – | – | < 0.01
– | – | – | – | O=C1N(Cc2ccc3[nH]nc(NCC4CC4)c3c2)[C@H](Cc2ccccc2)[C@H](O)[C@@H](O)[C@@H](Cc2ccccc2)N1Cc1ccc2[nH]nc(NCC3CC3)c2c1 | 38 | 2.1 | 0.34
